Laboratory results published in article PMC11680164 (Viruses, 2024).

How the values were obtained:
[1] = Pharmacokinetics (plasma and lung) after single oral dose in mice; assay type: in vivo, Swiss Webster mice; conditions: 60 mg/kg p.o. single dose
[2] = cited from earlier work
[3] = Swiss Webster, mouse, po, plasma

Structure (SMILES): COC(=O)N[C@H](C(=O)N1CCC[C@H]1c1nc(-c2ccc(-c3ccc(-c4c[nH]c([C@@H]5CCCN5C(=O)[C@@H](NC(=O)OC)C(C)C)n4)cc3)cc2)c[nH]1)C(C)C [daclatasvir]
- AUC in plasma relative to lungs [1]: ~5.9 fold
- Cmax ([1]; Swiss Webster, mouse, po, lung): 6190 ng/g
- Tmax ([1]; Swiss Webster, mouse, po, lung): 0.67 h
- half-life ([1]; Swiss Webster, mouse, po, lung): 14.7 h
- AUC(0-inf) [1, 3]: 103 µg·h/mL
- AUC(0-t) [1, 3]: 101 µg·h/mL
- Cmax [1, 3]: 22200 ng/mL
- Tmax [1, 3]: 1 h
- half-life [1, 3]: 2.25 h
- AUClast ([1]; lung): 16,932 h.ng/g
- AUC∞ ([1]; lung): 19,123 h.ng/g
- Ct (last concentration observed above the limit of quantification) ([1]; lung): 103.46 ng/g
- Tlast ([1]; lung): 16.00 h
- λ (apparent elimination constant) ([1]; lung): 0.0472 h*^−1
- Ct (last concentration observed above the limit of quantification) ([1]; plasma): 353.84 ng/mL
- Tlast ([1]; plasma): 16.00 h
- λ (apparent elimination constant) ([1]; plasma): 0.308 h*^−1
- no-observable-effect level (NOEL) ([2]; nonhuman primates treated daily for 4–9 months): 15 mg/kg
- tolerated dose ([2]; nonhuman primates): 15 mg/kg
